Experimental data as given in patent publication US5753240A, “Fluorinated compounds and compositions comprising them” (L'Oreal, priority 1994, dated 1998).

Experiments:
Format in all cases: physicochemical
[1] = Thickening effect of Example 1 on various vehicles: Parleam oil; conditions: 0.2% in Parleam oil
Procedure: (§1) The thickening of the medium can be carried out by completely dissolving the fluorinated compound of formula I, at a temperature ranging from 20° C. to 80° C., and then by allowing the mixture to stand until it is completely thickened.
(§2) Thickening effect of Example 1 on various vehicles
(§3) As is evident, Sunflower refers to Sunflower oil and Parleam refers to Parleam oil. Eutanol G is a tradename for octyldodecanol and is manufactured by Henkel.
(§4) Gelled media were thus obtained.

[2] = Thickening effect of Example 1 on various vehicles: Petroleum jelly; conditions: 0.2% in Petroleum jelly
Procedure: as §1, §2, §4

[3] = Thickening effect of Example 1 on various vehicles: Perhydrosqualene; conditions: 0.2% in Perhydrosqualene
Procedure: as §1, §2, §4

[4] = Thickening effect of Example 1 on various vehicles: Olive oil; conditions: 0.2% in Olive oil
Procedure: as §1, §2, §4

[5] = Thickening effect of Example 1 on various vehicles: Sunflower oil; conditions: 0.2% in Sunflower oil
Procedure: as §1, §2, §3, §4

[6] = Stability of the thickened (gelled) media over time; conditions: over a period of over 6 months
Text: as §4

## CCCCCCCCCCCCCCCCOC(=O)NCCCCCCCCCCC(=O)OCCC(F)(F)C(F)(F)C(F)(F)C(F)(F)C(F)(F)C(F)(F)C(F)(F)C(F)(F)F [Example 1, 2-(F-octyl)ethyl 11-(N-hexadecyloxycarbonyl)aminoundecanoate]
[1]
  Thickening effect: no effect
[2]
  Thickening effect: no effect
[3]
  Thickening effect: no effect
[4]
  Thickening effect: no effect
[5]
  Thickening effect: no effect
[6]
  Stability of thickened media: perfect stability
